Laboratory results reported in patent US11691992B2 (Anacor Pharmaceuticals, Inc., priority 2017, dated 2023).
Where two headings read alike, the source gives them in different places.

Experiments:
Assay type in all cases: cell-based
[1] = test system: bloodstream forms of T. b. rhodesiense STIB 900; test: T. brucei rhodesiense STIB 900 growth inhibition assay; settings: Trypanosoma brucei, 72 h
Excerpt: Example 110. T. brucei rhodesiense STIB 900 Growth Inhibition Assay
The parasite strain used in this assay was isolated in 1982 from a human patient in Tanzania and after several mouse passages cloned and adapted to axenic culture conditions, ((a) Baltz, T., D. Baltz, C. Giroud, and J. Crockett. EMBO Journal, 1985, 4:1273-1277. (b) Thuita, J. K., S. M. Karanja, T. Wenzler, R. E. Mdachi, J. M. Ngotho, J. M. Kagira, R. Tidwell, and R. Brun. Acta Tropica 2008, 108:6-10.) Minimum Essential Medium (50 μl) supplemented with 25 mM HEPES, 1 g/l additional glucose, 1% MEM non-essential amino acids (100×), 0.2 mM 2-mercaptoethanol, 1 mM Na-pyruvate and 15% heat inactivated horse serum was added to each well of a 96-well microtiter plate. Serial drug dilutions of seven 3-fold dilution steps covering a range from 90 to 0.123 μg/ml were prepared. Then 10^4 bloodstream forms of T. b. rhodesiense STIB 900 in 50 μl was added to each well and the plate incubated at 37° C. under a 5% CO2 atmosphere for 72 h. 10 μl Alamar Blue (resazurin, 12.5 mg in 100 ml double-distilled water) was then added to each well and incubation continued for a further 2-4 h, (Raz, B., M. Iten, Y. Grether-Buhler, R. Kaminsky, and R. Brun. Acta Trap 1997, 68:139-47.) Then the plates were read with a Spectramax Gemini XS microplate fluorometer (Molecular Devices Cooperation, Sunnyvale, Calif., USA) using an excitation wave length of 536 nm and an emission wave length of 588 nm. Data were analyzed using the microplate reader software Softmax Pro (Molecular Devices Cooperation, Sunnyvale, Calif., USA).

[2] = test system: L. infantum MHOM/MA(BE)/67 amastigotes in primary peritoneal mouse macrophages; test: Leishmania infantum intracellular amastigote assay in mouse macrophages; settings: Macrophage, 120 h
Protocol: Example 111. Leishmania infantum Intracellular Amastigote Assay in Mouse Macrophages
L. infantum MHOM/MA(BE)/67 amastigotes were collected from the spleen of an infected donor hamster and used to infect primary peritoneal mouse macrophages. (Kaiser, M., Maes, L., Tadoori, L. P., Spangenberg, T., Ioset, J.-R. J. Biomol. Screen. 2015 20(5), 634-35.) To determine in vitro antileishmanial activity, 3×10^4 macrophages were seeded in each well of a 96-well plate. Culture medium was RPMI-1640 supplemented with L-glutamine (20 mM), 16.5 mM sodium hydrogen carbonate, and 10% fetal calf serum (FCS). After 2 d of outgrowth, 5×10^5 amastigotes/well were added and incubated for 2 h at 37° C. Prediluted samples to be tested were subsequently added, and the plates were further incubated for 5 d at 37° C. and 5% CO2. Total parasite burdens in the well were microscopically assessed after Giemsa staining and expressed as a percentage of the total burden in the blank controls without compound. In treated wells with high amastigote burdens, an overall estimate of the total burden per well was made without discrimination between the number of infected macrophages and the number of amastigotes per infected cell. In treated wells with low burdens, exact counting was performed. The 50% inhibitory concentrations (IC50s) were then generated for each dose response test using GraphPad Prism (GraphPad Software Inc., San Diego, Calif.) using the nonlinear regression (sigmoidal dose-response/variable slope) equation.

[3] = test system: IL3000 T. congolense (drug sensitive) strain; test: In vitro Alamar Blue 72 h drug sensitivity assay for T. congolense; settings: Trypanosoma congolense; for IC50: bloodstream form, 69 h + 3 h resazurin, 34° C., classes A-C, read-out: IC50: I Org. Growth T. congolense IL-3000, 3 d
Protocol: Example 106. In Vitro Alamar Blue 72 h Drug Sensitivity Assay for T. congolense
Compounds were tested in vitro for chemotherapeutic potency against the IL3000 T. congolense (drug sensitive) strain, using the Alamar Blue assay with several modifications. Test compounds were prepared as 10 mg/mL DMSO stocks for each assay run. Compounds were assayed in at least three separate, independent test runs and an 11-point dilution curve was used to determine the IC50 values. Bloodstream form trypanosomes were supported in HMI media containing 20% bovine serum and were incubated with test compounds for 69 h at 34° C. in a humidified atmosphere containing 5% CO2. Thereafter, 10 μL of Resazurin dye (12.5 mg in 100 mL of phosphate buffered saline, Sigma-Aldrich, Buchs, Switzerland) were added for an additional 3 h. Plates were then read using a fluorescent plate reader (Spectramax, Gemini XS, Bucher Biotec, Basel, Switzerland) using an excitation wavelength of 536 nm and an emission wavelength of 588 nm. Data points were averaged to generate sigmoidal dose-response curves and IC50 values were determined using Softmax Pro 5.2 software.

[4] = test system: luciferase-expressing L. major parasites developing intracellularly inside RAW 264.7 macrophages; test: Leishmania major intracellular amastigote assay in RAW 264.7 macrophages (luciferase); settings: RAW264.7, 96 hours, read-out: IC50: I Org. intracellular amastigote Growth L. major, 4 d
Excerpt: Example 107. Assay for Leishmania major Intracellular Amastigote Assay in RAW 264.7 Macrophages
The intracellular amastigote assay is a microtiter plate drug sensitivity assay that uses the activity of luciferase as a measure of proliferation of luciferase-expressing L. major parasites developing intracellularly inside RAW 264.7 macrophages in the presence of antileishmanial drugs or experimental compounds. (Buckner, F. S., and A. J. Wilson. Am J Prop Med Hyg, 2005, 72(5): 600-605.) As the activity of luciferase and its associated luminescence after addition of the substrate, luciferin, is relative to parasite growth, a test compound that inhibits the growth of the parasite will result in a lower luminescence. The luciferase-expressing L. major parasite used in this assay is genetically modified by adding the luciferase coding region to the pLEXSY-hyg2 vector (Jena Biosciences). The luciferase expression construct was created by digesting the luciferase coding region (1.66 kbp) of pGL3-Basic (Promega) by using two restriction enzymes, NcoI/EagI, followed by electrophoretic separation of the luciferase coding region on a 1% agarose gel. The luciferase coding region was then ligated into pLEXSY-hyg2 vector (Jena Biosciences) which had previously been digested with NcoI/NotI. The vector was linearized with SwaI and subsequently gel purified prior to transfection into L. major parasites. Transfections were carried out by electroporation at 480V, 13Ω, and 500 μF (0.4 mL of 1×10^8 parasites/mL, and 0.1 mL of 10 μg DNA). Selection for transfectants was then carried out using hygromycin B (100 μg/mL). RAW 264.7 macrophages were cultured in DMEM media (ATCC Cat #30-2002) supplemented with heat-inactivated 10% FBS (Invitrogen Cat #10438-034). To begin the assay, macrophages were harvested from culture by removing all spent media, adding in 10 mL fresh media, scraping cells, and counted using Trypan Blue. The cells were resuspended in DMEM/10% HIFBS media at 2.0×10^5 cells/mL, and then dispensed in a volume of 50 μL to yield a final concentration of 10,000 macrophages/well in 384 well tissue-culture treated sterile white plates (Nunc Cat #12-565-343) using a Tecan EVO Freedom robotics system. The plates were then incubated at 37° C. overnight in 5% CO2 atmosphere for 24 hours. After overnight incubation, the media was removed from each well using the Tecan EVO Freedom robot, and L. major promastigotes were added to each well and allowed to invade the RAW macrophages. Promastigotes were cultured in Schneider's medium (Invitrogen Cat #11720-067) supplemented with 20% heat inactivated FBS. Metacyclic stage promastigotes provide the best invasion for this assay, and cultures should be grown to increase the percentage of metacyclic promastigotes for best results. Promastigotes were harvested from culture, counted, suspended at 2×10^6 promastigotes/mL in DMEM/HIFBS media, and 100,000 promastigotes were dispensed per well in a volume of 50 μL. After overnight incubation, the media was removed from each well using the Tecan Freedom EVO robot, and each well was subsequently washed three times with 40 μF of fresh DMEM/HIFBS medium to remove all extracellular promastigotes. After the third wash, 69.2 μF of DMEM/HIFBS medium was added to each well using the Tecan EVO Freedom robot. Drug plates were prepared with the Tecan EVO Freedom using sterile 96 well plates containing twelve duplicate two-fold serial dilutions of each test compound suspended in DMSO. 7.8 μF of diluted test compound was added to the 69.2 μF of media present in each well providing a 10 fold final dilution of compound. The final concentration range tested was 0.5 to 10,000 ng/ml for all assays. The plates were next incubated at 37° C. and 5% CO2 for 96 hours. After 96 hours of incubation, 7.5 μF of a luciferin solution (Caliper Fife Science) diluted to 150 μg/mF was added to each well, and the plates were incubated for 30 minutes at 37° C., in the dark. […]

[5] = test system: TdTomato-modified T. cruzi (CL strain) in Vero cells; test: In vitro IC50 measurement of T. cruzi amastigote killing using TdTomato-modified T. cruzi (CL strain); settings: Trypanosoma cruzi, 72 h, fluorescence, read-out: IC50: I Org. amastigote Growth T. cruzi CL TdTomato, 3 d
Protocol: Example 112. In Vitro IC50 Measurement of T. cruzi Amastigote Killing Using TdTomato-Modified T. cruzi (CL Strain)
The T. cruzi parasites used in this assay were genetically modified to express Td Tomato fluorescent protein. Vero cells (African green monkey kidney epithelial cells) were harvested from continuous cultures using trypsin and added to the inner 60 wells of 96-well Greiner Bio One plates (plate catalog #655090) at 200 ul/well of […]. Cells were allowed to adhere for 1 h before infection with T. cruzi. T. cruzi for infection were harvested from previously-infected Vero cells, washed, pelleted and resuspended at 5×10^6/mL. 50 uL of parasites were added to each well containing Vero cells. Compounds were prepared from 5 mM stock concentrations in DMSO to final concentrations in wells ranging from 5 uM to 5 nM. Wells were provided for negative controls, lacking compounds. Plates were placed into a 37° C. incubator for 20 min, then a “Day 0” reading was taken on a Synergy H4 plate reader to record initial fluorescence levels, at 544 (excitation) and 612 nm (emission). 96-well plates were placed in Tupperware containers with wet paper towels and incubated at 37° C. incubator for 72 h. After 72 h plates were reread (Day 3 reading) and data analyzed using Excel and/or Graphpad software. Day 0 fluorescence was subtracted from Day 3 to remove input parasite fluorescence. Growth curves are generated and 50% and 90% inhibitory concentrations are determined by nonlinear regression analysis.

[6] = bloodstream forms, Alamar Blue, protocol of Example 110, read-out: IC50: I Org. Growth T. brucei rhodesiense STIB 900, 3 d
[7] = amastigotes in primary peritoneal mouse macrophages, 5 d, Giemsa staining, read-out: Inhibition of Organism Growth in Leishmania infantum MHOM/MA/BE/67, 5 d

Cc1cccc(-c2nc(C(=O)Nc3ccc4c(c3)B(O)OC4)nn2C)n1 [Example 74, N-(1-hydroxy-1,3-dihydrobenzo[c][1,2]oxaborol-6-yl)-1-methyl-5-(6-methylpyridin-2-yl)-1H-1,2,4-triazole-3-carboxamide]
IC50 [1, 6]: 0.1 to 0.3 µM
IC50 [2, 7]: < 3 µM

Cn1nc(C(=O)Nc2ccc3c(c2)B(O)OC3)nc1-c1ccc(Cl)cn1 [Example 77, 5-(5-Chloropyridin-2-yl)-N-(1-hydroxy-1,3-dihydrobenzo[c][1,2]oxaborol-6-yl)-1-methyl-1H-1,2,4-triazole-3-carboxamide]
IC50 [1, 6]: 0.1 to 0.3 µM
inhibition at 1 µM ([3]; read-out: inhibition of T. congolense IL-3000 growth at a concentration of 1.0 μM (classes D, E)): > 75%
IC50 [2, 7]: 3 to 19.9 µM

Cn1c(C(=O)Nc2ccc3c(c2)B(O)OC3)nnc1-c1ccccn1 [Example 73, N-(1-hydroxy-1,3-dihydrobenzo[c][1,2]oxaborol-6-yl)-4-methyl-5-(pyridine-2-yl)-4H-1,2,4-triazole-3-carboxamide]
IC50 [1, 6]: 0.1 to 0.3 µM
IC50 [2, 7]: 3 to 19.9 µM

Cc1c(C(=O)Nc2ccc3c(c2)B(O)OC3)nnn1C1CCC1 [Example 42, 1-cyclobutyl-N-(1-hydroxy-1,3-dihydrobenzo[c][1,2]oxaborol-6-yl)-5-methyl-1H-1,2,3-triazole-4-carboxamide]
IC50 [4]: 1100 to 9900 nM
IC50 [5]: 600 to 1000 nM

COCCc1c(C(=O)Nc2ccc3c(c2)B(O)OC3)nnn1-c1ccccn1 [Example 52, N-(1-hydroxy-1,3-dihydrobenzo[c][1,2]oxaborol-6-yl)-5-(2-methoxyethyl)-1-(pyridin-2-yl)-1H-1,2,3-triazole-4-carboxamide]
IC50 [3]: 100 to 300 nM
IC50 [5]: 1100 to 10000 nM

CCc1c(C(=O)Nc2ccc3c(c2)B(O)OC3)nnn1-c1ccccn1 [Example 49, 5-ethyl-N-(1-hydroxy-1,3-dihydrobenzo[c][1,2]oxaborol-6-yl)-1-(pyridin-2-yl)-1H-1,2,3-triazole-4-carboxamide]
IC50 [3]: < 100 nM
IC50 [5]: < 600 nM

Cn1nc(C(=O)Nc2ccc3c(c2)B(O)OC3)nc1-c1cccnc1 [Example 78a, N-(1-hydroxy-1,3-dihydrobenzo[c][1,2]oxaborol-6-yl)-1-methyl-5-(pyridin-3-yl)-1H-1,2,4-triazole-3-carboxamide]
IC50 ([1]; read-out: IC50: I Org. Growth T. brucei rhodesiense STIB 900, 3 d [uM]): 0.31 to 10 µM
IC50 ([2]; read-out: Inhibition of Organism Growth in Leishmania infantum MHOM/MA/BE/67, 5 d [uM]): 3 to 19.9 µM

Cc1c(C(=O)Nc2ccc3c(c2)B(O)OC3C)nnn1-c1ccccc1 (centres unmarked) [Example 1, N-(1-hydroxy-1,3-dihydrobenzo[c][1,2]oxaborol-6-yl)-5-methyl-1-phenyl-1H-Example 11,2,3-triazole-4-carboxamide]
IC50 [4]: ≤ 1000 nM
IC50 [5]: < 600 nM
